Reference: US8383554B2, “Quantitative microarray of intact glycolipid CD1d interaction and correlation with cell-based cytokine production” (Academia Sinica, priority 2008, dated 2013)
pKd, pKi: −log10 of the molar value. “Also recorded” adds a separate entry of the source. Where two headings read alike, the source gives them in different places.

Legend:
[1] = biological target: T1, mCD1d:Ig fusion protein (CD1d) (Mus musculus, UniProt P11609); experiment: Competitive binding assay on microarray (Ki in solution); details: for binding to CD1d in competition assay (in words): relative to α-GalCer or parent compound; for pKi: competition against surface compound 1, CD1d ~100-200 nM
T1 construct: purchased BD Bioscience
T1 sequence (P11609 22-305 limits assumed): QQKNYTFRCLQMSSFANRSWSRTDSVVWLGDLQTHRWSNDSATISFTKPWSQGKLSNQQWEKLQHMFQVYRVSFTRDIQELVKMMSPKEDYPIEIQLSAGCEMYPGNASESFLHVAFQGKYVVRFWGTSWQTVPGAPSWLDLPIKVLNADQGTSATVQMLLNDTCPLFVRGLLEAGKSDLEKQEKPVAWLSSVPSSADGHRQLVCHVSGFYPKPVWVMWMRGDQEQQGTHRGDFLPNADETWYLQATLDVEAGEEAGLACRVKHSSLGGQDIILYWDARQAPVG
T1 sequence (P01887 21-119 partner): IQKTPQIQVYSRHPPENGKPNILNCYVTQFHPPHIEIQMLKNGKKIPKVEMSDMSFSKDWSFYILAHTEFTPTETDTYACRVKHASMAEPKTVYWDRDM
Excerpt: Determination of Ki. The solution equilibrium dissociation constant (Ki) for glycolipid-CD1d interactions can be determined using microarrays in a competitive assay. The equation that describes the binding of the two ligands to the same site on the protein is identical to that for the competitive inhibition of an enzyme-catalyzed reaction. It is possible to take advantage of the convenience of IC50 measurements and still report inhibitory potency in terms of true Ki values. The final forms of the relationship can be expressed as
In this assay, the concentration of the protein is kept constant at or near the KD, surf (˜100-200 nM of CD1d). The glass slide is incubated with solutions containing varying concentrations of the glycolipid (covering about two orders of magnitude) and the protein.
Microarray Fabrication. Microarrays were printed (Genomic Solutions, Gene Machine) by robotic pin (SMP2B, TeleChem International Inc.). Approximately […] of various concentrations of amine-containing compounds 1-4 in DMSO were deposited onto slides from a 384 well plate. The slide for: (1) the scope of printing concentration studies: NHS-coated glass slides were printed with compounds 1-4 at 20 different concentrations (1000, 800, 600, 400, 200, 100, 80, 60, 40, 20, 10, 8, 6, 4, 2, 1, 0.8, 0.6, 0.4, 0.2 μM) from right to left with 10 replicates vertically placed in each sub-array. Six identical sub-arrays were fabricated in a 1×6 pattern and each sub-array consisted of a 20×10 pattern of spots, with a 0.3 mm pitch. After 2 h, the surface of the slide was divided by permanent marker to avoid contamination for later protein incubation; (2) the slide for FIG. 2 was printed with compound 1 with concentrations of 1000 (left most column), 900, 800, 700, 600, 500, 400, 300, 200, 100, 80, 60, 40, 20, 10, 5 μM (right-most column, 16 different conc.) with 16 replicates vertically placed in each grid, and totally 16 replicate (8×2 pattern) sub-arrays in one slide; (3) the slides for Ki determinations: the slides were printed of compound 1 with concentration of 1000, 900, 800 μM from right to left 81 replicates placed in each grid (9×9 pattern) and totally 44 sub-arrays replicates (4×11 pattern, each subarray is approximately 5 mm (width)×6 mm (length) area) in one slide. After 24 hours reaction, the slides were washed with PBST buffer (0.05% Tween 20) for 30 min and then blocked with blocking solution (super-block blocking buffer in PBS, Pierce) for another 1 h. The slides were dried under a flow of argon gas and stored at room temperature in a desiccator. The slides were washed with PBS buffer (pH 7.4) before use.
Competitive Binding Assay. Solutions of the competitors at different concentration (400 to 0.1 μM) were prepared and 5 μl aliquots incubated with protein (5 μl, 100˜250 nM). The mixture was then placed in a 384 well microtiter plate, covered, and left for five to eight hours. An aliquot of this solution (8 μL) was loaded onto the slides and incubated for 1 hour under a humidifying container at room temperature. The following procedure is the same as above the direct binding assay in washing procedure and applying secondary antibody. To get the data, Each inhibitor was assayed under this system at least three times and average Ki values are reported.
Data analysis. Extraction of spot intensity data was performed using ArrayVision 8.0 (Applied Precision). The background, calculated as the median of pixel intensities from the local area around each spot, was subtracted from the mean pixel intensity within each spot. To graphically represent the data, the values of the background-subtracted signal intensities were plotted against the known concentration of the protein spotted in the array, using the commercial non-linear regression program GraphPad PRISM 4 (GraphPad, San Diego). The values obtained from the competition assay were plotted against the known concentrations of the competitors applied on the slide. […]

[2] = system: human Vα24+ NKT cell line co-cultured with Hela cells transfected with human CD1d; experiment: Cytokine secretion assay using human NKT cell lines, IFN-γ by ELISA; type: cell-based; details: 10 ng/ml glycolipid, 24 hours; for IFN-γ secretion (in words): relative to α-GalCer
Method: Generation of Vα24+ human NKT cell lines. Human NKT cell lines, expressing the Vα24+ T cell receptor (TCR), were generated as follows: Vα24+ T cells and CD14+ cells were isolated from leukopaks using magnetic beads (Miltenyi biotec, Auburn, Calif.) coupled to an anti-Vα24+ TCR monoclonal antibody and an anti-CD14 monoclonal antibody, respectively. Immature dendritic cells were generated from the CD14+ cells after a three-day incubation in the presence of 300 U/ml GM-CSF (R&D systems, Minneapolis, Minn.) and 100 U/ml IL-4 (R&D systems, Minneapolis, Minn.). Following irradiation with 3000 rads, the immature dendritic cells were co-cultured with syngeneic Vα24+ T cells in the presence of 100 ng/ml of α-galactosylceramide and 10 IU/ml of IL-2 (R&D systems, Minneapolis, Minn.) for 10 days.
Cytokine Secretion Assay using human NKT cell lines. Twenty-thousand cells of a human NKT cell line and 2×10^4 Hela cells transfected with human CD1d that had been irradiated for 10,000 rads, were co-cultured in the presence of 10 ng/ml of each glycolipid in a 96-well plate. After culture for 24 hours, the concentration of IFN-γ or IL-4 in the culture supernatants was determined by ELISA (BD Pharmingen, San Diego, Calif.).

CD1d [3] = details: read-out: dissociation constant from ITC; cited from earlier work
[4] = Water solubility of glycolipids; type: physicochemical
CD1d [5] = details: read-out: dissociation constant from IEF; cited from earlier work

## CCCCCCCCCCCCCC[C@@H](O)[C@@H](O)[C@H](CO[C@H]1O[C@H](CO)[C@H](O)[C@H](O)[C@H]1O)NC(=O)CCCCCCc1ccccc1 [Compound 12]
[1]
  binding to CD1d in competition assay (in words): about one order of magnitude stronger with CD1d than α-GalCer

## CCCCCCCCCCCCCC[C@@H](O)[C@@H](O)[C@H](CO[C@H]1O[C@H](CO)[C@H](O)[C@H](O)[C@H]1O)NC(=O)CCCCCCCc1ccccc1 [Compound 13]
[2]
  IFN-γ secretion (in words): peak IFN-γ secretions among the spacer chain elongation in acyl modification (11-17)
[1]
  binding to CD1d in competition assay (in words): about one order of magnitude stronger with CD1d than α-GalCer

## CCCCCCCCCCCCCC[C@@H](O)[C@@H](O)[C@H](CO[C@H]1O[C@H](CO)[C@H](O)[C@H](O)[C@H]1O)NC(=O)CCCCCCCCCCc1ccccc1 [Compound 16]
[1]
  binding to CD1d in competition assay (in words): about one order of magnitude stronger with CD1d than α-GalCer

## CCCCCCCCCCCCCC[C@@H](O)[C@@H](O)[C@H](CO[C@H]1O[C@H](CO)[C@H](O)[C@H](O)[C@H]1O)NC(=O)CCCCCCCCCCCCCCc1ccccc1 [Compound 17]
[2]
  selectivity IFN-γ vs IL-4 (in words): low selectivity between IFN-γ and IL-4
  IFN-γ secretion (in words): less IFN-γ production
[1]
  binding to CD1d in competition assay (in words): weaker affinities to CD1d

## CCCCCCCCCCCCCC[C@@H](O)[C@@H](O)[C@H](CO[C@H]1O[C@H](CO)[C@H](O)[C@H](O)[C@H]1O)NC(=O)CCCCCCCc1ccc(F)cc1 [Compound 18]
[2]
  selectivity IFN-γ vs IL-4 (in words): more than three times more selective for IFN-γ release
  IFN-γ secretion (in words): induce the most IFN-γ secretions; also recorded: highest IFN-γ cytokine production, more than double that of the α-GalCer induced IFN-γ secretion
[1]
  pKi: 6.85
  binding to CD1d in competition assay (in words): bind most strongly to CD1d; also recorded: enhance the binding by approximately one order of magnitude, compared with parent compound 13
[1]; listed as para-fluoroheptaphenyl-modified α-GalCer
  binding to CD1d in competition assay (in words): two orders of magnitude stronger than α-GalCer

## CCCCCCCCCCCCCC[C@@H](O)[C@@H](O)[C@H](CO[C@H]1O[C@H](CO)[C@H](O)[C@H](O)[C@H]1O)NC(=O)CCCCCCCc1ccc(OC)cc1 [Compound 19]
[2]
  IFN-γ secretion (in words): highest IFN-γ cytokine production, more than double that of the α-GalCer induced IFN-γ secretion

## CCCCCCCCCCCCCC[C@@H](O)[C@@H](O)[C@H](CO[C@H]1O[C@H](CO)[C@H](O)[C@H](O)[C@H]1O)NC(=O)CCCCCCCc1ccc(-c2ccccc2)cc1 [Compound 21]
[2]
  selectivity IFN-γ vs IL-4 (in words): low selectivity between IFN-γ and IL-4
  IFN-γ secretion (in words): less IFN-γ production
[1]
  binding to CD1d in competition assay (in words): lower binding activity; also recorded: weaker affinities to CD1d

## CCCCCCCCCCCCCC[C@@H](O)[C@@H](O)[C@H](CO[C@H]1O[C@H](CO)[C@H](O)[C@H](O)[C@H]1O)NC(=O)CCCCCCCCCCc1ccc(-c2ccccc2)cc1 [Compound 25]
[1]
  binding to CD1d in competition assay (in words): lower binding activity

## CCCCCCCCCCCCCCCCCCCCCCCCCC(=O)N[C@@H](CO[C@H]1O[C@H](CO)[C@H](O)[C@H](O)[C@H]1O)[C@H](O)[C@H](O)CCc1ccccc1 [Compound 26]
[1]
  binding to CD1d in competition assay (in words): weaker agonist of mCD1d

## CCCCCCCCCCCCCCCCCCCCCCCCCC(=O)N[C@@H](CO[C@H]1O[C@H](CO)[C@H](O)[C@H](O)[C@H]1O)[C@H](O)[C@H](O)CCCCCCCCCCCCCC [α-GalCer, α-galactosyl ceramide]
CD1d [3]
  pKd: 5.01
[4]
  solubility in aqueous solution (in words): low solubility
[1]
  pKi: 4.85
CD1d [5]
  pKd: 5.23
